The test system of this experiment is Bloodstream form T. b. brucei (Lister 427). In words: Trypanosoma brucei brucei Alamar Blue assay. The experiment is classed as cell-based. Here is the method:
IC50 values against trypanosomes were determined by Alamar Blue assay. […] After this time, 20 μL of resazurin dye (Sigma–Aldrich) solution at 0.49 mM was added. […] Output was plotted using the IC50 determination algorithm of Prism 5.0 software (GraphPad). Three independent experiments were carried out in duplicate for each compound.

Where [1] appears, read: Trypanosoma brucei, Table 1, Alamar Blue, 48 h + 24 h, all standard deviations less than 2%, read-out: IC50 against Trypanosoma brucei brucei.
Where [2] appears, read: Trypanosoma brucei, values in μM, read-out: IC50 against T. b. brucei.
Setting [3] is: Trypanosoma brucei, Table S2 (supplement), T. b. brucei activity, read-out: IC50.

Where two headings read alike, the source gives them in different places.

As to `CC(=N)Nc1cc(C(=O)Nc2cc(C(=O)Nc3cc(C(=O)NCCCN(C)C)n(C)c3)n(C)c2)n(C)c1` [Compound 2, N-[5-({[5-({[3-(Dimethylamino)propyl]amino}carbonyl)-1-methyl-1H-pyrrol-3-yl]amino}carbonyl)-1-methyl-1H-pyrrol-3-yl]-4-(ethanimidoylamino)-1-methyl-1H-pyrrole-2-carboxamide], the IC50 under setting [1] is greater than 75 µM and the IC50 under setting [2] is greater than 75 µM.

Turning to `COc1cccc(/C=C/c2ccc(C(=O)Nc3cc(C(=O)Nc4nc(C(=O)NCCCN(C)C)c(CCC(C)C)s4)n(C)c3)cc2)c1` [Compound 11, N-[3-(dimethylamino)propyl]-5-isopentyl-2-({[4-({4-[(E)-2-(3-methoxyphenyl)ethenyl]benzoyl}amino)-1-methyl-1H-pyrrol-2-yl]carbonyl}amino)-1,3-thiazole-4-carboxamide], the IC50 reads like this: under setting [1], 0.28 µM; under setting [3], 0.3 µM.

In the case of `CN(C)CCCNC(=O)c1cc(NC(=O)c2cc(NC(=O)c3cc(NC(=N)c4cc5ccccc5cn4)cn3C)cn2C)cn1C` [Compound 17, N-[5-({[3-(dimethylamino)propyl]amino}carbonyl)-1-methyl-1H-pyrrol-3-yl]-4-{[(4-{[imino(3-isoquinolinyl)methyl]amino}-1-methyl-1H-pyrrol-2-yl)carbonyl]amino}-1-methyl-1H-pyrrole-2-carboxamide], under setting [1], the IC50 worked out at 4.9 µM.

In the case of `Cn1cc(NC(=O)c2cc(NC(=O)c3ccc(/C=C/c4ccc(F)cc4)cc3)cn2C)cc1C(=O)NCCN1CCOCC1` [Compound 26, 4-({4-[(E)-2-(4-fluorophenyl)ethenyl]benzoyl}amino)-1-methyl-N-[1-methyl-5-({[2-(4-morpholinyl)ethyl]amino}carbonyl)-1H-pyrrol-3-yl]-1H-pyrrole-2-carboxamide], the IC50 under setting [1] worked out at 0.71 µM.

Take `CC(C)n1cc(NC(=O)c2cc(NC(=O)c3cnc(Cl)c(Cl)c3)cn2C)cc1C(=O)Nc1cc(C(=O)NCCCN(C)C)n(C)c1` [Compound 6, 5,6-Dichloro-N-[5-({[5-({[5-({[3-(dimethylamino)propyl]amino}carbonyl)-1-methyl-1H-pyrrol-3-yl]amino}carbonyl)-1-isopropyl-1H-pyrrol-3-yl]amino}carbonyl)-1-methyl-1H-pyrrol-3-yl]nicotinamide]: under setting [1], the IC50 came out at 4 µM.

Consider `CC(C)CCc1sc(NC(=O)c2cc(NC(=O)c3cc4ccccc4cn3)cn2C)nc1C(=O)NCCCN(C)C` [Compound 18, N-[5-({[4-({[3-(Dimethylamino)propyl]amino}carbonyl)-5-isopentyl-1,3-thiazol-2-yl]amino}carbonyl)-1-methyl-1H-pyrrol-3-yl]-3-isoquinolinecarboxamide], for which the half-inhibitory concentration (IC50) under setting [1] amounted to 0.39 µM.

`Cn1cc(NC(=O)c2cc(NC(=O)c3cc4ccccc4cn3)cn2C)cc1C(=O)NCCN1CCOCC1` [Compound 14, N-[1-Methyl-5-({[1-methyl-5-({[2-(4-morpholinyl)ethyl]amino}carbonyl)-1H-pyrrol-3-yl]amino}carbonyl)-1H-pyrrol-3-yl]-3-isoquinolinecarboxamide]: the IC50 under setting [1] worked out at 0.97 µM and the IC50 under setting [3] stood at 0.21 µM.

In the case of “2-{[(4-{[(4-{[Imino(4-methoxy-2-pyridinyl)methyl]amino}-1-methyl-1H-pyrrol-2-yl)carbonyl]amino}-1-methyl-1H-pyrrol-2-yl)carbonyl]amino}-5-isopropyl-N-[2-(4-morpholinyl)ethyl]-1,3-thiazole-4-carboxamide [Compound 5]”, the IC50 is greater than 75 µM (Table 1, Alamar Blue, 48 h + 24 h, all standard deviations less than 2%, read-out: IC50 against Trypanosoma brucei brucei) and greater than 75 µM (values in μM, read-out: IC50 against T. b. brucei).

For `CN(C)CCCNC(=O)c1cc(NC(=O)c2cc(NC(=O)c3cc(NC(=N)c4ccccc4)cn3C)cn2C)cn1C` [Compound 1, N-[5-({[5-({[3-(Dimethylamino)propyl]amino}carbonyl)-1-methyl-1H-pyrrol-3-yl]amino}carbonyl)-1-methyl-1H-pyrrol-3-yl]-4-{[imino(phenyl)methyl]amino}-1-methyl-1H-pyrrole-2-carboxamide], the IC50 was greater than 75 µM under setting [1] and greater than 75 µM under setting [2].

On to `CSc1ccc(/C=C/c2ccc3cc(C(=O)Nc4cc(C(=O)Nc5cc(C(=O)NCCN6CCOCC6)n(C)c5)n(C)c4)ccc3n2)cc1` [Compound 31, N-[1-methyl-5-({[1-methyl-5-({[2-(4-morpholinyl)ethyl]amino}carbonyl)-1H-pyrrol-3-yl]amino}carbonyl)-1H-pyrrol-3-yl]-2-{(E)-2-[4-(methylsulfanyl)phenyl]ethenyl}-6-quinolinecarboxamide], for which the IC50 under setting [1] was determined as 5 µM.

Turning to `CC(C)CCc1sc(NC(=O)c2cc(NC(=O)c3cc(/C=C/c4ccc([N+](=O)[O-])cc4)cn3C)cn2C)nc1C(=O)NCCCN(C)C` [Compound 13, N-[3-(dimethylamino)propyl]-5-isopentyl-2-[({1-methyl-4-[({1-methyl-4-[(E)-2-(4-nitrophenyl)ethenyl]-1H-pyrrol-2-yl}carbonyl)amino]-1H-pyrrol-2-yl}carbonyl)amino]-1,3-thiazole-4-carboxamide], the IC50 was found to be 0.21 µM under setting [1] and 0.18 µM under setting [3].

Consider `COc1cccc(C(=N)Nc2cc(C(=O)Nc3cc(C(=O)Nc4cc(C(=O)NCCCN5CCOCC5)n(C)c4)n(C)c3)n(C)c2)c1` [Compound 9, 4-{[(4-{[imino(3-methoxyphenyl)methyl]amino}-1-methyl-1H-pyrrol-2-yl)carbonyl]amino}-1-methyl-N-[1-methyl-5-({[3-(4-morpholinyl)propyl]amino}carbonyl)-1H-pyrrol-3-yl]-1H-pyrrole-2-carboxamide], for which the IC50 reads like this: under setting [1], greater than 75 µM; under setting [2], greater than 75 µM.

Take `N=C(N)c1ccc(/N=N/Nc2ccc(C(=N)N)cc2)cc1` [Diminazene, diminazene, reference compound]: the IC50 (Trypanosoma brucei, values given in nM, read-out: IC50 against T. b. brucei) came out at 0.005 µM.

As for `Cn1cc(NC(=O)c2cc(NC(=O)c3ccc(/C=C/c4ccc(C(F)(F)F)cc4)cc3)cn2C)cc1C(=O)NCCN1CCOCC1` [Compound 22, 1-methyl-N-[1-methyl-5-({[2-(4-morpholinyl)ethyl]amino}carbonyl)-1H-pyrrol-3-yl]-4-[(4-{(E)-2-[4-(trifluoromethyl)phenyl]ethenyl}benzoyl)amino]-1H-pyrrole-2-carboxamide], the IC50 under setting [1] was found to be 0.73 µM.

For the compound `Cn1cc(NC(=O)c2cc(NC(=O)c3ccc(/C=C/c4nc5ccccc5o4)cc3)cn2C)cc1C(=O)NCCN1CCOCC1` [Compound 16, 4-({4-[(E)-2-(1,3-benzoxazol-2-yl)ethenyl]benzoyl}amino)-1-methyl-N-[1-methyl-5-({[2-(4-morpholinyl)ethyl]amino}carbonyl)-1H-pyrrol-3-yl]-1H-pyrrole-2-carboxamide], the IC50 worked out at 0.79 µM under setting [1] and 2.2 µM under setting [3].

For the compound `Cn1cc(NC(=O)c2cc(NC(=O)c3cc(NC(=O)c4ccc(Cl)cc4Cl)cn3C)cn2C)cc1C(=O)NCCN1CCOCC1` [Compound 3, 4-[(2,4-Dichlorobenzoyl)amino]-1-methyl-N-[1-methyl-5-({[1-methyl-5-({[2-(4-morpholinyl)ethyl]amino}carbonyl)-1H-pyrrol-3-yl]amino}carbonyl)-1H-pyrrol-3-yl]-1H-pyrrole-2-carboxamide], the IC50 under setting [1] is 0.4 µM.

Regarding `Cn1cc(NC(=O)c2cc(NC(=O)c3cc(NC(=O)c4ccc(Cl)cc4Cl)cn3C)cn2C)cc1C(=O)NCCCN1CCOCC1` [Compound 25, 4-[(2,4-Dichlorobenzoyl)amino]-1-methyl-N-[1-methyl-5-({[1-methyl-5-({[3-(4-morpholinyl)propyl]amino}carbonyl)-1H-pyrrol-3-yl]amino}carbonyl)-1H-pyrrol-3-yl]-1H-pyrrole-2-carboxamide], the IC50 is 2.3 µM under setting [1] and 0.79 µM under setting [3].

Take `Cn1cc(NC(=O)c2cc(NC(=O)c3ccc(/C=C/c4cccc(F)c4)cc3)cn2C)cc1C(=O)NCCN1CCOCC1` [Compound 27, 4-({4-[(E)-2-(3-fluorophenyl)ethenyl]benzoyl}amino)-1-methyl-N-[1-methyl-5-({[2-(4-morpholinyl)ethyl]amino}carbonyl)-1H-pyrrol-3-yl]-1H-pyrrole-2-carboxamide]: the IC50 under setting [1] was 0.22 µM.

For `Cn1cc(NC(=O)c2cc(NC(=O)c3ccc(/C=C/c4ccncc4)cc3)cn2C)cc1C(=O)NCCN1CCOCC1` [Compound 24, 1-Methyl-N-[1-methyl-5-({[2-(4-morpholinyl)ethyl]amino}carbonyl)-1H-pyrrol-3-yl]-4-({4-[(E)-2-(4-pyridinyl)ethenyl]benzoyl}amino)-1H-pyrrole-2-carboxamide], under setting [1], the IC50 came to 0.38 µM.

As to `COc1cccc(/C=C/c2cccc(C(=O)Nc3cc(C(=O)Nc4nc(C(=O)NCCCN(C)C)c(CCC(C)C)s4)n(C)c3)c2)c1` [Compound 12, N-[3-(Dimethylamino)propyl]-5-isopentyl-2-({[4-({3-[(E)-2-(3-methoxyphenyl)ethenyl]benzoyl}amino)-1-methyl-1H-pyrrol-2-yl]carbonyl}amino)-1,3-thiazole-4-carboxamide], the IC50 came out at 0.18 µM under setting [1] and 0.28 µM under setting [3].

Consider `CC(C)CCc1sc(NC(=O)c2cc(NC(=O)c3ccc(/C=C/c4ccc5ccccc5n4)cc3)cn2C)nc1C(=O)NCCN1CCOCC1` [Compound 23, 5-isopentyl-2-({[1-methyl-4-({4-[(E)-2-(2-quinolinyl)ethenyl]benzoyl}amino)-1H-pyrrol-2-yl]carbonyl}amino)-N-[2-(4-morpholinyl)ethyl]-1,3-thiazole-4-carboxamide], for which the IC50 under setting [1] is 0.62 µM.

For `COc1ccc(/C=C/c2ccc3cc(C(=O)Nc4cc(C(=O)Nc5cc(C(=O)NCCN6CCOCC6)n(C)c5)n(C)c4)ccc3n2)cc1` [Compound 30, 2-[(E)-2-(4-Methoxyphenyl)ethenyl]-N-[1-methyl-5-({[1-methyl-5-({[2-(4-morpholinyl)ethyl]amino}carbonyl)-1H-pyrrol-3-yl]amino}carbonyl)-1H-pyrrol-3-yl]-6-quinolinecarboxamide], under setting [1], the IC50 came out at 0.63 µM.

(Values after paper PMC4872591, “An evaluation of Minor Groove Binders as anti-Trypanosoma brucei brucei therapeutics” (European Journal of Medicinal Chemistry, 2016).)
